Patent US20250270209A1 (INTERLINE THERAPEUTICS, INC., priority 2022, published 2025)

Experiments:
LRRK2 wild type enzyme = LRRK2 wild type enzyme (Homo sapiens, UniProt Q5S007); test: Biochemical Assay: LRRK2 TR-FRET (LanthaScreen) kinase assay with LRRKtide substrate; conditions: LRRK2 Inhibition, Table 8
Outline: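 TR-FRET detection (Tb-labelled phospho-LRRKtide antibody, EDTA stop, 30 min) followed a 120 min, 23 °C reaction of 3 nM wild-type human LRRK2 with LRRKtide (400 nM) and ATP (25 μM) in Tris pH 8.0. Compounds: 11-point 3-fold series from 10 μM, 15 min enzyme preincubation.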

[1] = target: T1, wild type LRRK2 overexpressed in recombinant HEK-293T cells (Homo sapiens, UniProt Q5S007); test: pS935 LRRK2 Cell Assay (HTRF, phospho-LRRK2 Ser935); type: cell-based; conditions: LRRK2 Inhibition, Table 8, 2 hours compound incubation
T1 construct: host or cells: HEK293T (transient transfection with pCMV-LRRK2 WT plasmid)
Outline: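 Phospho-Ser935 LRRK2 measured by two-antibody HTRF (Eu-cryptate donor, d2 acceptor; 665/615 nm ratio) after overnight detection at 23° C. Before lysis, transiently LRRK2-transfected HEK-293T cells were exposed 2 h at 37° C to a 9-point, 3-fold series from 10 μM, with DMSO at 0.2%.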

Chain of LRRK2 wild type enzyme (Q5S007 whole entry): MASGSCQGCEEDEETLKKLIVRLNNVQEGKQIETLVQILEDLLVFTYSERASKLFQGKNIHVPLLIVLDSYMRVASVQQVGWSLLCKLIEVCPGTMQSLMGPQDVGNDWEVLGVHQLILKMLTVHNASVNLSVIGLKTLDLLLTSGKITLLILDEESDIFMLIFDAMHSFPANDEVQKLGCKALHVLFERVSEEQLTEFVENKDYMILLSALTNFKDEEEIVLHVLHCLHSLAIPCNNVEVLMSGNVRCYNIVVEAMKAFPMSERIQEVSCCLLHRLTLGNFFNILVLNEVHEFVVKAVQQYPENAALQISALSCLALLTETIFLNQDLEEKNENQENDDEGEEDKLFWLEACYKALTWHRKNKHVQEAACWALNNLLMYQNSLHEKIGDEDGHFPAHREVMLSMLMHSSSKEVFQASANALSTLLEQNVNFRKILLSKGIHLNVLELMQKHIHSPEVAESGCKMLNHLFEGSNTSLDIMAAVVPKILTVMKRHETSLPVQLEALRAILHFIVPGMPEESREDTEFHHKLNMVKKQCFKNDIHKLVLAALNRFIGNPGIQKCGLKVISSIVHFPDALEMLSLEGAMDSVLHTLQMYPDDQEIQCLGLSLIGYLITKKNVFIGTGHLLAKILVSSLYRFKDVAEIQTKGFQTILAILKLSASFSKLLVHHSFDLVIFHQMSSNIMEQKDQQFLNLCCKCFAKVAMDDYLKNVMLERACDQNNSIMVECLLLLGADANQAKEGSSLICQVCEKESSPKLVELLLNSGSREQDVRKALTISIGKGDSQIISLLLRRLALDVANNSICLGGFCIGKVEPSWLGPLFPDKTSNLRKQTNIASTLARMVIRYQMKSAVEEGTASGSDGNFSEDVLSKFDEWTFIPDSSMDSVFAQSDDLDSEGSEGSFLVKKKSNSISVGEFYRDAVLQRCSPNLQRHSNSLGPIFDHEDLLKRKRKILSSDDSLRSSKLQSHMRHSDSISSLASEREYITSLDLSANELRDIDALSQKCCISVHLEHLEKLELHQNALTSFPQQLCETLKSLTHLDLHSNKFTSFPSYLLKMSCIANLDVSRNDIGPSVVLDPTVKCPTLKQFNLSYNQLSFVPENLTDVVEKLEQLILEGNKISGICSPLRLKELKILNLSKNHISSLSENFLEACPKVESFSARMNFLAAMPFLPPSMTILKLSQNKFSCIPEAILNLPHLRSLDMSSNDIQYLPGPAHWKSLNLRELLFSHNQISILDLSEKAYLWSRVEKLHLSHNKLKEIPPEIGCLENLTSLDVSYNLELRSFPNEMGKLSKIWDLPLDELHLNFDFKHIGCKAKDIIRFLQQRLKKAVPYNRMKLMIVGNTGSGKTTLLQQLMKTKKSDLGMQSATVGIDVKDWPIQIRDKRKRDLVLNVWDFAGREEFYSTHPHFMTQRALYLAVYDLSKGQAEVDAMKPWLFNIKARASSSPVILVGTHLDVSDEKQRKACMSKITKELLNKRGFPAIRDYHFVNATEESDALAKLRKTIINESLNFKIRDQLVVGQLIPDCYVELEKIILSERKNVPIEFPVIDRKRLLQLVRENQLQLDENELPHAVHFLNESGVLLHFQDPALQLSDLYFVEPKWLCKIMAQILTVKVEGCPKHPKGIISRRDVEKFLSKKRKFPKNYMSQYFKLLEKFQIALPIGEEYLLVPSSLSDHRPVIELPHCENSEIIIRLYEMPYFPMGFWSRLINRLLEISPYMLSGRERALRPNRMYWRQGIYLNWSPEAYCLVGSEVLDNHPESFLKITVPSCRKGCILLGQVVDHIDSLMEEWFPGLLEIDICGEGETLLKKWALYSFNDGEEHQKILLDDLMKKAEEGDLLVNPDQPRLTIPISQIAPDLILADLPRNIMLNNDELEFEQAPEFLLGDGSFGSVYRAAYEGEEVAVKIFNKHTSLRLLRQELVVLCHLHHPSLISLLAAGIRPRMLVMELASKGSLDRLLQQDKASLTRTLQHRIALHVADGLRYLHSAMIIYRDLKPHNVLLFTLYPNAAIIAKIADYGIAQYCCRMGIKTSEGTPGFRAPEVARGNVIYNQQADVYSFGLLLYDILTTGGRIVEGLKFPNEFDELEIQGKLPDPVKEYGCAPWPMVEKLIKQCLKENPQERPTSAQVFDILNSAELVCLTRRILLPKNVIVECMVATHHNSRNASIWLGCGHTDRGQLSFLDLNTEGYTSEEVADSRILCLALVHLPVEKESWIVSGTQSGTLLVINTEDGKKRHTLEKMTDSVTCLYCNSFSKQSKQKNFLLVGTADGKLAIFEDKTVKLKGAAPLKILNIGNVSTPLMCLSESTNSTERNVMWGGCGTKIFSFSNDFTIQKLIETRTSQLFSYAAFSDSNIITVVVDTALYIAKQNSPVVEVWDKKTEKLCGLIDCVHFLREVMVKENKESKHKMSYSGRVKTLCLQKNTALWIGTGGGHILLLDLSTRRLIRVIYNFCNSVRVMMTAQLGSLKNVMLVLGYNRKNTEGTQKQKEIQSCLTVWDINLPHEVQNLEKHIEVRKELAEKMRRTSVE
T1 sequence (Q5S007 whole entry): as above

SMILES	IC50 (LRRK2 wild type enzyme)	IC50 [1]
CCn1cc(NC(=O)Cc2nc3cnc4ccc(C#N)cc4c3n2[C@@H]2CCO[C@H](C)C2)cn1 [Compound 310, N-(1-ethyl-4-pyrazolyl){3-[(2R,4R)-2-methyltetrahydro-2H-pyran-4-yl]-12-cyano-3,5,8-triazatricyclo[7.4.0.0^2,6]trideca-1,4,6,8,10,12-hexaen-4-yl}acetamide]	0.712 nM	15.4 nM
C[C@@H]1C[C@H](n2c(CC(=O)Nc3cc(C4CC4)on3)nc3cnc4ccc(C#N)cc4c32)CCO1 [Compound 359, N-(5-cyclopropyl-3-isoxazolyl){3-[(2R,4R)-2-methyltetrahydro-2H-pyran-4-yl]-12-cyano-3,5,8-triazatricyclo[7.4.0.0^2,6]trideca-1(9),2(6),4,7,10,12-hexaen-4-yl}acetamide]	0.525 nM	4.76 nM
Cc1ncc(NC(=O)Cc2nc3cnc4ccc(C#N)cc4c3n2[C@@H]2CCO[C@H](C)C2)cn1 [Compound 329, N-(2-methyl-5-pyrimidinyl){3-[(2R,4R)-2-methyltetrahydro-2H-pyran-4-yl]-12-cyano-3,5,8-triazatricyclo[7.4.0.0^2,6]trideca-1(9),2(6),4,7,10,12-hexaen-4-yl}acetamide]	0.483 nM	16.5 nM
C[C@@H]1C[C@H](n2c(CC(=O)NC3(CF)CC3)nc3cnc4ccc(C#N)cc4c32)CCO1 [Compound 294, N-1-(fluoromethyl)cyclopropyl{3-[(2R,4R)-2-methyltetrahydro-2H-pyran-4-yl]-12-cyano-3,5,8-triazatricyclo[7.4.0.0^2,6]trideca-1,4,6,8,10,12-hexaen-4-yl}acetamide]	1.48 nM	132 nM
COc1cc(F)ncc1NC(=O)Cc1nc2cnc3ccc(C#N)cc3c2n1[C@@H]1CCO[C@H](C)C1 [Compound 230, N-(6-fluoro-4-methoxy-3-pyridyl){3-[(2R,4R)-2-methyltetrahydro-2H-pyran-4-yl]-12-cyano-3,5,8-triazatricyclo[7.4.0.0^2,6]trideca-1,4,6,8,10,12-hexaen-4-yl}acetamide]	0.442 nM	4.9 nM
Cc1noc(CNC(=O)Cc2nc3cnc4ccc(C#N)cc4c3n2[C@@H]2CCO[C@H](C)C2)n1 [Compound 279, N-[(3-methyl-1,2,4-oxadiazol-5-yl)methyl]{3-[(2R,4R)-2-methyltetrahydro-2H-pyran-4-yl]-12-cyano-3,5,8-triazatricyclo[7.4.0.0^2,6]trideca-1(9),2(6),4,7,10,12-hexaen-4-yl}acetamide]	0.776 nM	86.3 nM
C[C@@H]1C[C@H](n2c(CC(=O)NCC(C)(C)C#N)nc3cnc4ccc(C#N)cc4c32)CCO1 [Compound 239, N-(2-cyano-2-methylpropyl){3-[(2R,4R)-2-methyltetrahydro-2H-pyran-4-yl]-12-cyano-3,5,8-triazatricyclo[7.4.0.0^2,6]trideca-1(9),2(6),4,7,10,12-hexaen-4-yl}acetamide]	1.32 nM	169 nM
C[C@@H]1C[C@H](n2c(CNS(C)(=O)=O)nc3cnc4ccc(C#N)cc4c32)CCO1 [Compound 21, N-({8-cyano-1-[(2R,4R)-2-methyloxan-4-yl]-1H-imidazo[4,5-c]quinolin-2-yl}methyl)methanesulfonamide]	5.18 nM	641 nM
C[C@@H]1C[C@H](n2c(CC(=O)NCCCO)nc3cnc4ccc(C#N)cc4c32)CCO1 [Compound 181, 2-{8-cyano-1-[(2R,4R)-2-methyloxan-4-yl]-1H-imidazo[4,5-c]quinolin-2-yl}-N-(3-hydroxypropyl)acetamide]	0.578 nM	376 nM
C[C@@H]1C[C@H](n2c(CS(=O)(=O)C3CC3)nc3cnc4ccc(C5CC5)cc4c32)CCO1 [Compound 62, 2-[(cyclopropanesulfonyl)methyl]-8-cyclopropyl-1-[(2R,4R)-2-methyloxan-4-yl]-1H-imidazo[4,5-c]quinoline]	16.4 nM	1250 nM
C[C@@H]1C[C@H](n2c([C@@H]3CCC(=O)N3)nc3cnc4ccc(C#N)cc4c32)CCO1 [Compound 71, 1-[(2R,4R)-2-methyloxan-4-yl]-2-[(2S)-5-oxopyrrolidin-2-yl]-1H-imidazo[4,5-c]quinoline-8-carbonitrile]	5.49 nM	4790 nM
COc1ncc(NC(=O)Cc2nc3cnc4ccc(C#N)cc4c3n2[C@@H]2CCO[C@H](C)C2)cn1 [Compound 291, N-(2-methoxy-5-pyrimidinyl){3-[(2R,4R)-2-methyltetrahydro-2H-pyran-4-yl]-12-cyano-3,5,8-triazatricyclo[7.4.0.0^2,6]trideca-1,4,6,8,10,12-hexaen-4-yl}acetamide]	0.527 nM	18 nM
COc1ncncc1NC(=O)Cc1nc2cnc3ccc(C#N)cc3c2n1[C@@H]1CCO[C@H](C)C1 [Compound 251, N-(4-methoxy-5-pyrimidinyl){3-[(2R,4R)-2-methyltetrahydro-2H-pyran-4-yl]-12-cyano-3,5,8-triazatricyclo[7.4.0.0^2,6]trideca-1(9),2(6),4,7,10,12-hexaen-4-yl}acetamide]	0.382 nM	3.56 nM
COc1ccc2ncc3nc(CC(=O)NC4CC4)n([C@@H]4CCO[C@H](C)C4)c3c2c1 [Compound 160, N-cyclopropyl-2-{8-methoxy-1-[(2R,4R)-2-methyloxan-4-yl]-1H-imidazo[4,5-c]quinolin-2-yl}acetamide]	2.82 nM	332 nM
C[C@@H]1C[C@H](n2c(CC(=O)NCCO)nc3cnc4ccc(Cl)cc4c32)CCO1 [Compound 163, 2-{8-chloro-1-[(2R,4R)-2-methyloxan-4-yl]-1H-imidazo[4,5-c]quinolin-2-yl}-N-(2-hydroxyethyl)acetamide]	0.676 nM	43.8 nM
C[C@@H]1C[C@H](n2c(CC(=O)Nc3cccnn3)nc3cnc4ccc(C#N)cc4c32)CCO1 [Compound 168, 2-{8-cyano-1-[(2R,4R)-2-methyloxan-4-yl]-1H-imidazo[4,5-c]quinolin-2-yl}-N-(pyridazin-3-yl)acetamide]	0.375 nM	8.76 nM
C[C@@H]1C[C@H](n2c(CC(=O)N[C@H]3C[C@H]3F)nc3cnc4ccc(C#N)cc4c32)CCO1 [Compound 289, N-[(1S,2R)-2-fluorocyclopropyl]{3-[(2R,4R)-2-methyltetrahydro-2H-pyran-4-yl]-12-cyano-3,5,8-triazatricyclo[7.4.0.0^2,6]trideca-1,4,6,8,10,12-hexaen-4-yl}acetamide]	0.692 nM	54.5 nM
C[C@@H]1C[C@H](n2c(CC(=O)NCc3cccc(C(F)(F)F)n3)nc3cnc4ccc(C#N)cc4c32)CCO1 [Compound 370, N-{[6-(trifluoromethyl)-2-pyridyl]methyl}{3-[(2R,4R)-2-methyltetrahydro-2H-pyran-4-yl]-12-cyano-3,5,8-triazatricyclo[7.4.0.0^2,6]trideca-1(9),2(6),4,7,10,12-hexaen-4-yl}acetamide]	0.295 nM	2.74 nM
Cc1ccc(NC(=O)Cc2nc3cnc4ccc(C#N)cc4c3n2[C@@H]2CCO[C@H](C)C2)cn1 [Compound 319, N-(6-methyl-3-pyridyl){3-[(2R,4R)-2-methyltetrahydro-2H-pyran-4-yl]-12-cyano-3,5,8-triazatricyclo[7.4.0.0^2,6]trideca-1(9),2(6),4,7,10,12-hexaen-4-yl}acetamide]	0.542 nM	5.93 nM
Cc1nc2n(n1)CC(NC(=O)Cc1nc3cnc4ccc(C#N)cc4c3n1[C@@H]1CCO[C@H](C)C1)CC2 (stereo partly drawn) [Compound 244, N-(2-methyl-4,5,6,7-tetrahydro-1,3,3a-triaza-5-indenyl){3-[(2R,4R)-2-methyltetrahydro-2H-pyran-4-yl]-12-cyano-3,5,8-triazatricyclo[7.4.0.0^2,6]trideca-1,4,6,8,10,12-hexaen-4-yl}acetamide]	1.39 nM	2630 nM
C[C@@H]1C[C@H](n2c(CC(=O)Nc3ccn(C)c(=O)c3)nc3cnc4ccc(C#N)cc4c32)CCO1 [Compound 280, N-(1-methyl-2-oxo-1,2-dihydro-4-pyridyl){3-[(2R,4R)-2-methyltetrahydro-2H-pyran-4-yl]-12-cyano-3,5,8-triazatricyclo[7.4.0.0^2,6]trideca-1,4,6,8,10,12-hexaen-4-yl}acetamide]	0.373 nM	495 nM
C[C@@H]1C[C@H](n2c([C@H]3CN(CC4CC4)S(=O)(=O)C3)nc3cnc4ccc(C#N)cc4c32)CCO1 [Compound 2, 2-[(4R)-2-(cyclopropylmethyl)-1,1-dioxo-1λ^6,2-thiazolidin-4-yl]-1-[(2R,4R)-2-methyloxan-4-yl]-1H-imidazo[4,5-c]quinoline-8-carbonitrile]	0.662 nM	39.2 nM
C[C@@H]1C[C@H](n2c(C3CC(=O)N([C@H](C)C4CC4)C3)nc3cnc4ccc(C#N)cc4c32)CCO1 (stereo partly drawn) [Compound 34, 2-{1-[(1R)-1-cyclopropylethyl]-5-oxopyrrolidin-3-yl}-1-[(2R,4R)-2-methyloxan-4-yl]-1H-imidazo[4,5-c]quinoline-8-carbonitrile]	4.22 nM	273 nM
C[C@@H]1C[C@H](n2c(CC(=O)Nc3ccon3)nc3cnc4ccc(C#N)cc4c32)CCO1 [Compound 184, 2-{8-cyano-1-[(2R,4R)-2-methyloxan-4-yl]-1H-imidazo[4,5-c]quinolin-2-yl}-N-(1,2-oxazol-3-yl)acetamide]	0.299 nM	4.73 nM
C[C@@H]1C[C@H](n2c([C@H]3CCCN(C(=O)C4CC4)C3)nc3cnc4ccc(C#N)cc4c32)CCO1 [Compound 29, 2-[(3S)-1-cyclopropanecarbonylpiperidin-3-yl]-1-[(2R,4R)-2-methyloxan-4-yl]-1H-imidazo[4,5-c]quinoline-8-carbonitrile]	135 nM	4680 nM
